Assay results from the supplement of paper PMC10307832.

Columns and labels:
Experiment in all cases: relative viability (nuclei count vs DMSO), 5 days (fraction); higher = more cells survive
[1] = compound: C/C(=N\NC(=S)N1CCC1)/C2=CC=CC=N2 + C[C@]1(O)C[C@@H](c2nc(-c3ccc4ccc(-c5ccccc5)nc4c3)c3c(N)nccn32)C1 [Linsitinib] (partner 1 µM)
Summary of the method: (§1)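 Nuclei were stained with Hoechst during a one-step fixation (final 0.05% Triton X-100, 1% formaldehyde, 1 ug/ml Hoechst) carried out 5 days after dosing, then counted on 4× images. The cells, lung cancer lines in 1536-well plates, had been dosed by pin tool the day after seeding with one drug alone or a fixed anchor-drug dose plus five library-drug doses (not always all listed) in √10 steps. Relative viability is the nuclei count in treated wells divided by that in vehicle wells, and each value is the median of duplicate plates.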

[2] = compound: C/C(=N\NC(=S)N1CCC1)/C2=CC=CC=N2 + CC1(C)CCC(c2ccc(Cl)cc2)=C(CN2CCN(c3ccc(C(=O)NS(=O)(=O)c4ccc(N[C@H](CCN5CCOCC5)CSc5ccccc5)c(S(=O)(=O)C(F)(F)F)c4)cc3)CC2)C1 [Navitoclax] (partner 0.5 µM)
Summary of the method: as §1

[3] = compound: C/C(=N\NC(=S)N1CCC1)/C2=CC=CC=N2 + COc1cc2c(Oc3ccc(NC(=O)C4(C(=O)Nc5ccc(F)cc5)CC4)cc3F)ccnc2cc1OCCCN1CCOCC1 [Foretinib] (partner 0.25 µM)
Summary of the method: as §1

[4] = compound: C/C(=N\NC(=S)N1CCC1)/C2=CC=CC=N2 + CCNC(=O)c1noc(-c2cc(C(C)C)c(O)cc2O)c1-c1ccc(CN2CCOCC2)cc1 [Luminespib] (partner 0.01 µM)
Summary of the method: as §1

| Cell Line | relative viability ([1]; first compound 0.05 µM) | relative viability ([1]; first compound 0.1581 µM) | relative viability ([1]; first compound 0.5 µM) | relative viability ([1]; first compound 1.581 µM) | relative viability ([1]; first compound 5 µM) | relative viability ([2]; first compound 0.05 µM) | relative viability ([2]; first compound 0.1581 µM) | relative viability ([2]; first compound 0.5 µM) | relative viability ([2]; first compound 1.581 µM) | relative viability ([2]; first compound 5 µM) | relative viability ([3]; first compound 0.05 µM) | relative viability ([3]; first compound 0.1581 µM) | relative viability ([3]; first compound 0.5 µM) | relative viability ([3]; first compound 1.581 µM) | relative viability ([3]; first compound 5 µM) | relative viability ([4]; first compound 0.05 µM) | relative viability ([4]; first compound 0.1581 µM) | relative viability ([4]; first compound 0.5 µM) | relative viability ([4]; first compound 1.581 µM) | relative viability ([4]; first compound 5 µM) |
| --- | --- | --- | --- | --- | --- | --- | --- | --- | --- | --- | --- | --- | --- | --- | --- | --- | --- | --- | --- | --- |
| HCC-78 | 0.299 | 0.251 | 0.189 | 0.161 | 0.175 | 0.492 | 0.245 | 0.218 | 0.189 | 0.12 | 0.488 | 0.451 | 0.367 | 0.237 | 0.235 | – | – | – | – | – |
| HCC-366 | 0.0558 | 0.0147 | 0.0179 | 0.0206 | 0.0189 | 0.0139 | 0.0237 | 0.0184 | 0.0179 | 0.0172 | 0.127 | 0.346 | 0.0579 | 0.0562 | 0.0285 | – | – | – | – | – |
| HCC-827 | 0.716 | 0.968 | 0.338 | 0.3 | 0.187 | 0.639 | 1.02 | 0.308 | 0.273 | 0.241 | 0.538 | 0.583 | 0.239 | 0.223 | 0.17 | 0.254 | 0.468 | 0.163 | 0.124 | 0.188 |
| HOP-62 | 0.162 | 0.968 | 0.0703 | 0.0888 | 0.0655 | 0.169 | 0.0748 | 0.0823 | 0.104 | 0.0618 | 0.21 | 0.243 | 0.114 | 0.116 | 0.112 | 0.215 | 0.12 | 0.151 | 0.129 | 0.119 |
| IA-LM | 0.0757 | 0.0841 | 0.0585 | 0.0612 | 0.0387 | 0.0776 | 0.062 | 0.0799 | 0.0503 | 0.0417 | 0.0694 | 0.0465 | 0.0654 | 0.0441 | 0.0339 | – | – | – | – | – |
| LC-2-ad | 0.131 | 0.155 | 0.11 | 0.099 | 0.146 | 0.0933 | 0.0992 | 0.0713 | 0.0966 | 0.121 | 0.225 | 0.309 | 0.267 | 0.227 | 0.235 | 0.269 | 0.273 | 0.252 | 0.219 | 0.247 |
| LCLC-97TM1 | 0.117 | 0.176 | 0.1 | 0.105 | 0.108 | 0.124 | 0.421 | 0.0929 | 0.115 | 0.104 | 0.511 | 0.752 | 0.193 | 0.12 | 0.155 | 0.415 | 0.623 | 0.109 | 0.136 | 0.151 |
| LCLC-103H | 0.389 | 0.99 | 0.262 | 0.309 | 0.238 | – | – | – | – | – | 0.176 | 0.311 | 0.221 | 0.133 | 0.167 | 0.174 | 0.204 | 0.233 | 0.182 | 0.158 |
| LK-2 | 0.14 | 0.154 | 0.18 | 0.114 | 0.125 | 0.121 | 0.146 | 0.108 | 0.112 | 0.126 | 0.134 | 0.183 | 0.202 | 0.133 | 0.146 | 0.16 | 0.147 | 0.158 | 0.188 | 0.131 |
